# From patent publication US20220257582A1, “TREATMENT FOR SYNUCLEINOPATHIES” (SUN PHARMA ADVANCED RESEARCH COMPANY LIMITED, priority 2019, published 2022)
# System: AAV1/2-mediated over-expression of human A53T alpha-synuclein (hA53T-aSYN) in the striatonigral region of female Sprague Dawley (SD) rats
# Experiment: AAV1/2 alpha synuclein rat model of synucleinopathy (neuroprotective potential)
# Assay type: in vivo
# Details: Day 2 to Day 42; for Striatal dopamine levels, operated vs non-operated sides: FIG. 3; for Nigral TH+ve cell counts (operated side): TH+ve neurons in the striatonigral region compared to empty AAV1/2 control animals: immunohistochemistry and stereological cell counting, FIG. 1; for Striatal TH OD (operated vs non-operated sides): FIG. 2
# Experimental: Compound I was evaluated in a adeno-associated virus (AAV) AAV1/2 alpha synuclein rat model based upon AAV1/2-mediated delivery and over-expression of human A53T alpha-synuclein (hA53T-aSYN) in the striatonigral region of the midbrain of female Sprague Dawley (SD) rats (Koprich et al, PLoS One. 7; 6(3):e17698, 2011). The study was designed to assess the ability of Compound I to protect dopaminergic neurons from viral vector mediated over-expression of aSYN leading to neurodegeneration in rat model. This model is typically used as a model for aSYN-induced Parkinsonism, but may serve as a model for aSYN-induced neuronal loss in general. AAV1/2 hA53T-aSYN (a viral vector delivering the capability to express human A53T mutant aSYN), or the control AAV1/2 empty vector, was injected stereotactically and unilaterally, into the striatal region of the midbrain. Rats were treated orally with Compound I (melt extrusion suspension), once daily, to provide equivalent doses of Compound I at 15, 30 and 45 mg/kg.
# AAV1/2 hA53T-aSYN or empty AAV1/2 vector was administered sterotactically and unilaterally into the right striatal region on Day 1. Starting on Day 2 and continuing daily until Day 42, animals were fasted for 6 hr prior to oral administration of Compound I or vehicle (placebo). Food was reintroduced 60 minutes later. A total of 5 groups of animals, each group N=12, were employed.
# Animals were killed for post-mortem assessments on Day 43, at least 18 h after last administration of Compound I or vehicle. Brains were removed along with the terminal blood collection.
# As a consequence of localized synucleinopathy caused by the AAV1/2-encoded hA53T aSYN at or near the site of injection, tyrosine hydroxylase (TH)-expressing dopaminergic neurons in the affected striatonigral area degenerate (Koprich et al., PLoS One, 7; 6(3):e17698, 2011). Number of tyrosine hydroxylase positive (TH^+ve) cells within the striatonigral region of the right side of the brain (injected side), were assessed using immunohistochemistry and stereological cell counting. Tyrosine hydroxylase is a critical enzyme involved in dopamine biosynthesis and thus, its presence can be used as a marker of live neurons capable of producing dopamine.
structure (smiles),measurement,setting,value
Cc1ccc(C(=O)NNC(=O)c2c(C)cccc2Cl)cc1C#Cc1cnc2ccccc2c1 [Compound I],"Striatal dopamine levels, operated vs non-operated sides",15 mg/kg oral once daily,failed to restore the dopamine biosynthetic capability
same,Nigral TH+ve cell counts (operated side): TH+ve neurons in the striatonigral region compared to empty AAV1/2 control animals,15 mg/kg oral once daily,significant reduction (p<0.05)
same,Striatal TH OD (operated vs non-operated sides),30 mg/kg oral once daily,significant neuroprotective effect
same,"Striatal dopamine levels, operated vs non-operated sides",30 mg/kg oral once daily,failed to restore the dopamine biosynthetic capability
same,Nigral TH+ve cell counts (operated side): TH+ve neurons in the striatonigral region compared to empty AAV1/2 control animals,30 mg/kg oral once daily,significant reduction (p<0.05)
same,Striatal TH OD (operated vs non-operated sides),45 mg/kg oral once daily,significant neuroprotective effect
same,"Striatal dopamine levels, operated vs non-operated sides",45 mg/kg oral once daily,still lower than that from its left counterpart
same,Nigral TH+ve cell counts (operated side): TH+ve neurons in the striatonigral region compared to empty AAV1/2 control animals,45 mg/kg oral once daily,did not show significant reduction (p>0.05)
